From patent US20250302862A1, “SMALL RNA DRUG FOR INHIBITING ACTIVITY OF CANCER CELLS” (Institute of Basic Medical Sciences Chinese Academy of …, priority 2022, published 2025)

How the values were obtained:
H460 cells [1] = experiment: Cell migration (scratch assay, Transwell); assay type: cell-based, human; conditions: 100 nmol/L, 48 h
Protocol: Method 1: H460 cells with a cell density of more than 90% in 10 cm^2 dishes were plated in 12-well plates using serum-free medium according to the cell growth rate. After 12 h, 200 uL pipette tips were used to draw straight lines in the wells. The floating cells were washed away and transfection was performed, and the groups (three wells per group, two lines per well) were divided as follows: • blank control group: 200 uL of opti-MEM per well • negative control group (NC group) and experimental group: • A. 100 uL of opti-MEM and 2 uL of iMax were mixed well for 5 min • B. 100 uL of opti-MEM and 5 uL of small RNA (final concentration 100 nmol/L) were mixed well • C. solution A and solution B were mixed well and let stand for 15 min, and then was added to each well at a 200 uL system • Note: 100 uL of nuclease-free water was added to 2 nmol of small RNA dry powder for dissolution at a storage concentration of 20 umol/L
After 48 h, the supernatant was discarded and images were taken under a microscope.
Method 2: H460 cells with a cell density of more than 90% in 10 cm^2 dishes were digested and then resuspended with 1 mL of serum-free medium and counted. 100,000 cells (100 uL) were plated in the upper chamber, and complete medium with 10% FBS was added to the lower chamber of each Transwell (migration chamber). […]
(§1) 1) H460 cells with a cell density of more than 90% in 10 cm^2 dishes were digested and then resuspended with 1 mL of serum-free medium and counted. […]
as §1

H460 cells [2] = experiment: Apoptosis detection (Annexin V / PI); assay type: cell-based, human; conditions: 100 nmol/L, 48 h
Protocol: H460 cells with a cell density of more than 90% in 10 cm^2 dishes were plated in 12-well plates according to the cell growth rate, and transfected after 12 h, and the groups were divided as follows: • blank control group (4 wells): 200 uL of opti-MEM per well • negative control group (NC group) and experimental group (3 wells each): the system in each well was as follows • A. 100 uL of opti-MEM and 2 uL of iMax were mixed well for 5 min • B. 100 uL of opti-MEM and 5 uL of small RNA (final concentration 100 nmol/L) were mixed well • C. solution A and solution B were mixed well and let stand for 15 min, and then was added to each well at a 200 uL system • Note: 100 uL of nuclease-free water was added to 2 nmol of small RNA dry powder for dissolution at a storage concentration of 20 umol/L
The supernatant and cells were collected after 48 h and washed twice with pre-chilled PBS. The 4 tubes of cells in the blank control group were added respectively with: (1) 200 uL of 1× binding buffer; (2) 200 uL of 1× binding buffer and 5 uL of Annexin V stain; (3) 200 uL of 1× binding buffer and 5 uL of PI stain; (4) 200 uL of 1× binding buffer, 5 uL of Annexin V stain and 5 uL of PI stain. 200 uL of 1× binding buffer, 5 uL of Annexin V stain and 5 uL of PI stain were added to each tube of both the NC group and the experimental group. The mixture was mixed well and filtered through 300 mesh filters. The live cell population and the position of quadrant gate were selected according to the blank control group, and then the apoptosis of the NC group and the experimental group was detected. […]

Substance | cell migration (H460 cells [1]) | apoptosis (H460 cells [2])
HQi-sRNA-2: small RNA derived from Scutellaria baicalensis, sequence AUGGUUCGAUUCCGGAGAGGG (listed as RNA, chemistry not given here) | inhibits | promotes
MDM-sRNA-39: small RNA derived from Maytenus hookeri, sequence GGGAUUGUAGUUCAAUUGGUCAGAGCACC (listed as RNA, chemistry not given here) | inhibits | promotes
MDM-sRNA-163: small RNA derived from Maytenus hookeri, sequence UGACUCUAGUCCGACUUUGUGAAAUGACU (listed as RNA, chemistry not given here) | inhibits | promotes
